The NIST ThermoML archive (doi:10.1016/j.fluid.2012.03.002)
Numbers after ± are expanded uncertainties.

Columns and labels:
[1] = Crystal; DTA
[2] = Molar enthalpy of transition or fusion; details: Crystal; DSC

## C=CC(=O)Oc1cccc(CCCCCCCCCCCCCCC)c1 [3-pentadecylphenyl acrylate]
[1]
  Normal melting temperature: 31.50 ± 0.7 °C
[2]
  Molar enthalpy of transition or fusion: 13 ± 0.263 kcal/mol
